ChEMBL document CHEMBL1151120, “Plant antimutagenic agents, 3. Coumarins” (J Nat Prod, 1988)

What was measured:
Format in all cases: functional, Salmonella enterica subsp. enterica serovar Typhimurium, T98
Salmonella typhimurium [1] = assay: Antimutagenic activity in Salmonella Typhimurium […] assessed as inhibition of 2-aminoanthracene-induced mutation at 600 ug/plate after 72 hrs in presence of Ames S-9 fraction
Salmonella typhimurium [2] = assay: Antimutagenic activity in Salmonella Typhimurium […] assessed as inhibition of 2-aminoanthracene-induced mutation at 300 ug/plate after 72 hrs in presence of Ames S-9 fraction
Salmonella typhimurium [3] = assay: Antimutagenic activity in Salmonella Typhimurium […] assessed as inhibition of 2-aminoanthracene-induced mutation at 150 ug/plate after 72 hrs in presence of Ames S-9 fraction
Salmonella typhimurium [4] = assay: Antimutagenic activity in Salmonella Typhimurium […] assessed as inhibition of acetylaminofluorene-induced mutation at 600 ug/plate after 72 hrs in presence of Ames S-9 fraction
Salmonella typhimurium [5] = assay: Antimutagenic activity in Salmonella Typhimurium […] assessed as inhibition of acetylaminofluorene-induced mutation at 300 ug/plate after 72 hrs in presence of Ames S-9 fraction
Salmonella typhimurium [6] = assay: Antimutagenic activity in Salmonella Typhimurium […] assessed as inhibition of acetylaminofluorene-induced mutation at 150 ug/plate after 72 hrs in presence of Ames S-9 fraction
Salmonella typhimurium [7] = assay: Antimutagenic activity in Salmonella Typhimurium […] assessed as inhibition of benzo[a]pyrene-induced mutation at 600 ug/plate after 72 hrs in presence of Ames S-9 fraction
Salmonella typhimurium [8] = assay: Antimutagenic activity in Salmonella Typhimurium […] assessed as inhibition of benzo[a]pyrene-induced mutation at 300 ug/plate after 72 hrs in presence of Ames S-9 fraction
Salmonella typhimurium [9] = assay: Antimutagenic activity in Salmonella Typhimurium […] assessed as inhibition of benzo[a]pyrene-induced mutation at 150 ug/plate after 72 hrs in presence of Ames S-9 fraction
Salmonella typhimurium [10] = assay: Antimutagenic activity in Salmonella Typhimurium […] assessed as inhibition of 2-nitroflorene-induced mutation at 600 ug/plate after 72 hrs
Salmonella typhimurium [11] = assay: Antimutagenic activity in Salmonella Typhimurium […] assessed as inhibition of 2-nitroflorene-induced mutation at 300 ug/plate after 72 hrs
Salmonella typhimurium [12] = assay: Antimutagenic activity in Salmonella Typhimurium […] assessed as inhibition of 2-nitroflorene-induced mutation at 150 ug/plate after 72 hrs

SMILES	inhibition (INH) (Salmonella typhimurium [1]) [%]	inhibition (INH) (Salmonella typhimurium [2]) [%]	inhibition (INH) (Salmonella typhimurium [3]) [%]	inhibition (INH) (Salmonella typhimurium [4]) [%]	inhibition (INH) (Salmonella typhimurium [5]) [%]	inhibition (INH) (Salmonella typhimurium [6]) [%]	inhibition (INH) (Salmonella typhimurium [7]) [%]	inhibition (INH) (Salmonella typhimurium [8]) [%]	inhibition (INH) (Salmonella typhimurium [9]) [%]	inhibition (INH) (Salmonella typhimurium [10]) [%]	inhibition (INH) (Salmonella typhimurium [11]) [%]	inhibition (INH) (Salmonella typhimurium [12]) [%]
COc1c2ccoc2cc2oc(=O)ccc12 [BERGAPTEN]	23	0	0	0	0	0	75	67	61	40	41	27
O=c1ccc2ccccc2o1 [COUMARIN]	22	0	0	36	28	5	53	16	10	73	17	24
COc1c2occc2cc2ccc(=O)oc12 [METHOXSALEN]	44	0	0	39	21	0	86	76	58	25	39	5
COc1ccc2ccc(=O)oc2c1CC=C(C)C [OSTHOLE]	68	0	0	74	56	51	54	49	13	80	55	29
CC(C)=CCOc1c2occc2cc2ccc(=O)oc12 [PENTOSALEN]	81	0	0		56	35	90	87	86	58	43	22
O=c1ccc2cc3ccoc3cc2o1 [PSORALEN]	60											
O=c1ccc2ccc(O)cc2o1 [UMBELLIFERONE]	14											
